Experimental data: paper PMC7432901, “Investigation of Strand-Selective Interaction of SNA-Modified siRNA with AGO2-MID” (International Journal of Molecular Sciences, 2020)

Each compound was assayed against T1, AGO2-MID (Homo sapiens, UniProt Q9UKV8) (assay: isothermal titration calorimetry). Conditions: read-out: Ka (× 10^3 M^-1) (converted).
T1 construct: MID domain, residues 432-578; expressed in E. coli BL21(DE3)pLysS as His6-SUMO-TEV fusion (pCold I), His6-SUMO cleaved with proTEV
Format: binding
Text: isothermal titration calorimetry on AGO2-MID

T1 sequence (Q9UKV8 432-578): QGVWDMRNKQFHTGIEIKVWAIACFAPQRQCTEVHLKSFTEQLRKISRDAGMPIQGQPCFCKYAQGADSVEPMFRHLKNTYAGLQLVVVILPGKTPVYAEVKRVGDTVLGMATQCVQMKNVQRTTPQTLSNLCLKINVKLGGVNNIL

In order of rising Kd:
1. Nc1ncnc2c1ncn2[C@@H]1O[C@H](COP(=O)(O)O[C@H]2[C@@H](O)[C@H](n3cnc4c(N)ncnc43)O[C@@H]2COP(=O)(O)O)[C@@H](O)[C@H]1O [p-rArA]  4.35 µM
2. Nc1ncnc2c1ncn2CC(=O)N[C@@H](COP(=O)(O)O)COP(=O)(O)OC[C@H]1O[C@@H](n2cnc3c(N)ncnc32)[C@H](O)[C@@H]1O [p-sArA]  139 µM
3. Nc1ncnc2c1ncn2[C@@H]1O[C@H](COP(=O)(O)O)[C@@H](O)[C@H]1O [AMP]  169 µM
4. Nc1ncnc2c1ncn2CC(=O)N[C@H](CO)COP(=O)(O)OC[C@H](COP(=O)(O)O)NC(=O)Cn1cnc2c(N)ncnc21 [p-sAsA]  169 µM
